The source made the active and inactive calls. The rule behind the calls is not given here.
Experiments:
T-24 [1] = assay: Induction of mitochondrial membrane potential dysfunction in human T24 cells assessed as change in morphology at 0.5 to 1 uM by Mitotracker green dye based fluorescence microscopy; assay type: functional, cell-based; conditions: dose 0.5-1 µM
T-24 [2] = assay: Induction of mitochondrial mediated apoptosis in human T24 cells assessed as upregulation of cytochrome c expression at 0.5 to 1 uM incubated for 24 hrs by Western blotting analysis; assay type: functional, cell-based; conditions: dose 0.5-1 µM
T-24 [3] = assay: Induction of DNA damage in human T24 cells assessed as increase in gamma H2AX phosphorylation at 0.5 uM incubated for 24 hrs by Hoechst33258 staining based immunofluorescence assay; assay type: functional, cell-based
T-24 [4] = assay: Induction of apoptosis in human T24 cells assessed as late apoptotic cells at 1 uM incubated for 24 hrs by Annexin-V/PI staining based flow cytometry analysis (reference value: 0.543 %); assay type: functional
T-24 [5] = assay: Induction of apoptosis in human T24 cells assessed as early apoptotic cells at 0.5 uM incubated for 24 hrs by Annexin-V/PI staining based flow cytometry analysis (reference value: 3.27 %); assay type: functional
T-24 [6] = assay: Induction of mitochondrial mediated apoptosis in human T24 cells assessed as increase in Bak protein expression at 0.5 to 1 uM incubated for 24 hrs by Western blotting analysis; assay type: functional, cell-based; conditions: dose 0.5-1 µM
T-24 [7] = assay: Induction of mitochondrial membrane potential dysfunction in human T24 cells assessed as depolarised cells at 0.5 uM incubated for 24 hrs by JC-1 staining based flow cytometry (reference value: 6.20%); assay type: functional
T-24 [8] = assay: Induction of mitochondrial membrane potential dysfunction in human T24 cells assessed as depolarised cells at 1 uM incubated for 24 hrs by JC-1 staining based flow cytometry (reference value: 6.20%); assay type: functional
T-24 [9] = assay: Inhibition of colony formation in human T24 cells at 0.01 uM incubated for 24 hrs and measured for 10 days; assay type: functional, cell-based
T-24 [10] = assay: Induction of mitochondrial membrane potential dysfunction in human T24 cells assessed as mitochondrial fragment condensation at 0.5 to 1 uM by mito-tracker green dye based fluorescence microscopy; assay type: functional, cell-based; conditions: dose 0.5-1 µM
T-24 [11] = assay: Induction of ROS accumulation in human T24 cells assessed as increase in intracellular ROS level at 0.5 uM by […] based flow cytometry; assay type: functional, cell-based
T-24 [12] = assay: Induction of cell cycle arrest in human T24 cells assessed as accumulation of cells at G1 phase at 1 uM incubated for 24 hrs by propidium iodide/RNase A staining based flow cytometry analysis (reference value: 51.71 %); assay type: functional
T-24 [13] = assay: Induction of apoptosis in human T24 cells assessed as early apoptotic cells at 1 uM incubated for 24 hrs by Annexin-V/PI staining based flow cytometry analysis (reference value: 3.27 %); assay type: functional
T-24 [14] = assay: Induction of DNA damage in human T24 cells assessed as DNA strand breakage by measuring comet formation at 0.5 uM incubated for 24 hrs by comet assay; assay type: functional, cell-based
T-24 [15] = assay: Induction of DNA damage in human T24 cells assessed as increase in […] p53 expression at 0.5 to 1 uM incubated for 24 hrs by Western blot analysis; assay type: functional, cell-based; conditions: dose 0.5-1 µM
T-24 [16] = assay: Cytotoxicity against human T24 cells assessed as decrease in cell viability at 0.5 uM by MTT assay; assay type: functional, cell-based; conditions: TDE = time-dependent effect
T-24 [17] = assay: Induction of DNA damage in human T24 cells assessed as increase in gamma H2AX expression at 0.5 to 1 uM incubated for 24 hrs by Western blot analysis; assay type: functional, cell-based; conditions: dose 0.5-1 µM
T-24 [18] = assay: Induction of cell cycle arrest in human T24 cells assessed as accumulation of cells at S phase at 1 uM incubated for 24 hrs by propidium iodide/RNase A staining based flow cytometry analysis (reference value: 42.47 %); assay type: functional
T-24 [19] = assay: Induction of apoptosis in human T24 cells assessed as necrotic cells at 20 uM incubated for 24 hrs by Annexin-V/PI staining based flow cytometry analysis (reference value: 1.92 %); assay type: functional
T-24 [20] = assay: Induction of apoptosis in human T24 cells assessed as contracted small fragmented nuclei at 10 uM by Hoechst33258 staining based fluorescence microscopy; assay type: functional, cell-based
T-24 [21] = assay: Induction of apoptosis in human T24 cells assessed as condensation of nuclei at 10 uM by Hoechst33258 staining based fluorescence microscopy; assay type: functional, cell-based
T-24 [22] = assay: Induction of apoptosis in human T24 cells assessed as increase in caspase 3 activity at 15 uM (Rvb= 3.1%); assay type: functional
T-24 [23] = assay: Induction of mitochondrial membrane potential dysfunction in human T24 cells assessed as nuclear condensation at 10 to 15 uM by mito-tracker green dye based fluorescence microscopy; assay type: functional, cell-based; conditions: dose 10-15 µM
T-24 [24] = assay: Induction of ROS accumulation in human T24 cells assessed as increase in intracellular ROS level at 10 uM by […] based flow cytometry; assay type: functional, cell-based
T-24 [25] = assay: Induction of ROS generation in human T24 cells at 10 uM by fluorescence microscopy; assay type: functional, cell-based
T-24 [26] = assay: Induction of apoptosis in human T24 cells assessed as necrotic cells at 15 uM incubated for 24 hrs by Annexin-V/PI staining based flow cytometry analysis (reference value: 1.92 %); assay type: functional
T-24 [27] = assay: Induction of cell cycle arrest in human T24 cells assessed as accumulation of cells at G2/M phase at 15 uM incubated for 24 hrs by propidium iodide/RNase A staining based flow cytometry analysis (reference value: 5.82 %); assay type: functional
T-24 [28] = assay: Induction of mitochondrial Ca2+ production in human T24 cells assessed as increase in intracellular Ca2+ concentration at 10 uM by Rhod2-AM staining based fluorescence microscopic method; assay type: functional, cell-based
T-24 [29] = assay: Induction of mitochondrial membrane potential dysfunction in human T24 cells assessed as depolarised cells at 15 uM incubated for 24 hrs by JC-1 staining based flow cytometry (reference value: 6.20%); assay type: functional
[30] = Toxicity in human WI-38 cells assessed as wound closure at 5 uM measured after 24 hrs by fluorescence microscopy based wound healing assay; assay type: cell-based; conditions: wi-38, 24 h
T-24 [31] = assay: Induction of mitochondrial membrane potential dysfunction in human T24 cells assessed as disappearance of cristae at 2 uM incubated for 24 hrs by TEM analysis; assay type: functional, cell-based
T-24 [32] = assay: Induction of mitochondrial mediated apoptosis in human T24 cells assessed as upregulation of apaf-1 expression at 2 to 4 uM incubated for 24 hrs by Western blotting analysis; assay type: functional, cell-based; conditions: dose 2-4 µM
T-24 [33] = assay: Induction of cell cycle arrest in human T24 cells assessed as accumulation of cells at G1 phase at 2 uM incubated for 24 hrs by propidium iodide/RNase A staining based flow cytometry analysis (reference value: 51.71 %); assay type: functional
T-24 [34] = assay: Induction of DNA damage in human T24 cells assessed as increase in gamma H2AX expression at 2 to 4 uM incubated for 24 hrs by Western blot analysis; assay type: functional, cell-based; conditions: dose 2-4 µM
T-24 [35] = assay: Induction of cell cycle arrest in human T24 cells assessed as accumulation of cells at G1 phase at 4 uM incubated for 24 hrs by propidium iodide/RNase A staining based flow cytometry analysis (reference value: 51.71 %); assay type: functional
T-24 [36] = assay: Induction of cell cycle arrest in human T24 cells assessed as accumulation of cells at G2/M phase at 4 uM incubated for 24 hrs by propidium iodide/RNase A staining based flow cytometry analysis (reference value: 5.82 %); assay type: functional

O=C1c2ccccc2-c2ccc([N+](=O)[O-])c3ccnc1c23
Activity (T-24 [1]): Active
Activity (T-24 [2]): Active
Activity (T-24 [3]): Active
Activity (T-24 [4]): 6.25%
Activity (T-24 [5]): 35.3%
Activity (T-24 [6]): Active
Activity (T-24 [7]): 37%
Activity (T-24 [8]): 44.5%
inhibition (T-24 [9]): Active
Activity (T-24 [10]): Active
Activity (T-24 [11]): Active
Activity (T-24 [12]): 3.53%
Activity (T-24 [13]): 39.5%
Activity (T-24 [14]): Active
Activity (T-24 [15]): Active
Activity (T-24 [16]): Tde
Activity (T-24 [17]): Active
Activity (T-24 [18]): 35.21%

O=C1c2ccccc2-c2cccc3ccnc1c23
Activity (T-24 [19]): 2.31%
Activity (T-24 [20]): Active
Activity (T-24 [21]): Active
Activity (T-24 [22]): 25.5%
Activity (T-24 [23]): Active
Activity (T-24 [24]): Active
Activity (T-24 [25]): Active
Activity (T-24 [26]): 2.44%
Activity (T-24 [27]): 22.69%
Activity (T-24 [28]): Active
Activity (T-24 [29]): 25.6%
Activity [30]: Non-Toxic

O=C1c2cc([N+](=O)[O-])ccc2-c2ccc([N+](=O)[O-])c3ccnc1c23
Activity (T-24 [31]): Active
Activity (T-24 [32]): Active
Activity (T-24 [33]): 0.27%
Activity (T-24 [34]): Active
Activity (T-24 [35]): 15.29%
Activity (T-24 [36]): 14.18%

Source: ChEMBL document CHEMBL5131473, “One-pot synthesis of oxoaporphines as potent antitumor agents and investigation of their mechanisms of actions” (Eur J Med Chem, 2022)
